Paper PMC11678245, “The Molecular Basis of the Intrinsic and Acquired Resistance to Azole Antifungals in Aspergillus fumigatus” (Journal of Fungi, 2024)
Where “and” joins values, the source holds several entries; their conditions need not be identical. Identical values can stand only once. Entries after “also recorded” stand apart in the source; their conditions may differ. Numbered stars: 1 amine (or outer) side, 2 acyl side, 3 side chain; on linkers, the order of the positions; unused ones are H or OH. Bridge positions count the residues as written; N and C are the ends. Square brackets hold non-standard residues; d marks the D form. Peptide text beside a SMILES is read from it. * marks the point of attachment. hTyr(3S-OH,4S-OH,3'-OSO3H) = N[C@H](C(=O)O)[C@H](O)[C@@H](O)c1ccc(O)c(OS(=O)(=O)O)c1; Orn(4R-OH,5R-OH) = O=C([C@H](C[C@@H](O)[C@@H](O)N[*:3])N[*:1])[*:2]; Pro(3S-OH,4S-Me) = C[C@H]1CN[C@H](C(=O)O)[C@H]1O; X1 = CCCCCOc1ccc(-c2cc(-c3ccc(C(=O)*)cc3)no2)cc1; Gln(3R-OH) = NC(=O)C[C@@H](O)[C@H](N)C(=O)O; Hyp = O=C(O)[C@@H]1C[C@@H](O)CN1

Tests used:
AfCYP51A-6×His = AfCYP51A-6×His (Aspergillus fumigatus, UniProt Q4WNT5); assay: Type I binding of substrates (difference spectra); parameters: Full-length codon-optimised AfCYP51A-6×His and AfCYP51B-6×His were constitutively co-expressed; made in house; details: AfCYP51A-6×His 5 µM, concentrations up to 300 μM
Chain of AfCYP51A-6×His (Q4WNT5 whole entry): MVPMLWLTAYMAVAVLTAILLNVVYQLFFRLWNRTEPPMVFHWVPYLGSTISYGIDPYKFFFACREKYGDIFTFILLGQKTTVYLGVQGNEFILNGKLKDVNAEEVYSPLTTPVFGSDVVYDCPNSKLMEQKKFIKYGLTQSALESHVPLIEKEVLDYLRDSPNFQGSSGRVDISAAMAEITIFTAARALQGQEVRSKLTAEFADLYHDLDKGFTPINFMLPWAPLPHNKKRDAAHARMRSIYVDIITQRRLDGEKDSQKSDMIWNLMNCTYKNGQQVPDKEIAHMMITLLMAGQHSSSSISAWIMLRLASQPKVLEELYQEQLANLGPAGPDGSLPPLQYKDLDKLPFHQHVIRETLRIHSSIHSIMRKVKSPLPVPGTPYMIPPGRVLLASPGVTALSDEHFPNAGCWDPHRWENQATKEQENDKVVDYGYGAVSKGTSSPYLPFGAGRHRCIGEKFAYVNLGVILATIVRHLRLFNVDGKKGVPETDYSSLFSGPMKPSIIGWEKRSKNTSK
Method: (§1) The concentration of AfCYP51A and AfCYP51B, purified using Ni-NTA affinity chromatography and used for the spectrophotometric type I and type II binding assays, was calculated using an extinction co-efficient of λ417nm = 117 mM^−1 cm^−1 applied to the absolute absorption spectrum of the preparations. In addition, the amount of “active” cytochrome P450 enzyme was determined using the carbon monoxide (CO) binding spectra of these preparations.
Type I binding of substrates lanosterol and eburicol in the active site of the Ni-NTA affinity-purified AfCYP51A and AfCYP51B enzymes was assessed using the method of Warrilow et al.. […] Substrate saturation curves were constructed by plotting the maximal ∆Apeak−trough obtained between 350 and 500 nm, allowing for a change in the reaction volume during the titration. The substrate binding constant (KS) was calculated by nonlinear regression (Levenberg–Marquardt algorithm) applied to the Michaelis–Menten equation or the Hill equation. GraphPad Prism 9.2.0 software was used to identify the best fit for the data.

AfCYP51B-6×His = target: T1, AfCYP51B-6×His (Aspergillus fumigatus, UniProt E9QY26); assay: Type I binding of substrates (difference spectra)
T1 sequence (E9QY26 1-524): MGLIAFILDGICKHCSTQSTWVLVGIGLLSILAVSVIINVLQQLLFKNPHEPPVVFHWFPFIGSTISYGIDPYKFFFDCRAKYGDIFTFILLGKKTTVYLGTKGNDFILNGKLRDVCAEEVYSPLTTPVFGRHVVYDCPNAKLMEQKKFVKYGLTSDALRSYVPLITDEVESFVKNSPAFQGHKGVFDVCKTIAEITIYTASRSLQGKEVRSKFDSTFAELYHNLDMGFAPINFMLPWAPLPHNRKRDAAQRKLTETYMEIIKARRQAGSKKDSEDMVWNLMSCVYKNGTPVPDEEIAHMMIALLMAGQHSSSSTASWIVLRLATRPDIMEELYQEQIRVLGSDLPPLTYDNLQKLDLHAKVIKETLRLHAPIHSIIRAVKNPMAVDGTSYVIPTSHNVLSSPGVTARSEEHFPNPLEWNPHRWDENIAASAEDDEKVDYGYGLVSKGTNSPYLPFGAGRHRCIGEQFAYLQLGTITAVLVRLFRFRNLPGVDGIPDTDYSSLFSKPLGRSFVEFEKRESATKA
Method: as §1
Type I binding of substrates lanosterol and eburicol in the active site of the Ni-NTA affinity-purified AfCYP51A and AfCYP51B enzymes was assessed using the method of Warrilow et al.. Titrations of 5 μM AfCYP51-6×His protein with lanosterol or eburicol (1 to 250 μM) were measured using a Cary 300 UV–Visible Spectrophotometer (Agilent Technologies, Santa Clara, CA, USA). Substrate saturation curves were constructed by plotting the maximal ∆Apeak−trough obtained between 350 and 500 nm, allowing for a change in the reaction volume during the titration. The substrate binding constant (KS) was calculated by nonlinear regression (Levenberg–Marquardt algorithm) applied to the Michaelis–Menten equation or the Hill equation. GraphPad Prism 9.2.0 software was used to identify the best fit for the data.

[1] = test system: S. cerevisiae strain B (AfCyp51B-6×His, native ScCyp51 retained); assay: MIC80 susceptibility, strain B; type: cell-based; details: Saccharomyces cerevisiae, Table 2, SD pH 6.8, 48 h, 30 °C
Method: (§2) The susceptibilities of S. cerevisiae strains to antifungal drugs were determined as minimum growth inhibitory concentration (MIC) values in 200 μL SD pH 6.8 [24]. Serial 2-fold dilutions of 100 μL of azole or control drugs in SD pH 6.8 were prepared in a 96-well microtiter plate. A portion of a 2 mL SD pH 6.8 overnight culture of the test strain was inoculated into 3 mL fresh SD pH 6.8 and incubated for 4 to 6 h at 30 °C to generate logarithmic-phase cells. These cells were then diluted with fresh SD pH 6.8 to OD600nm = 0.01 (3 × 10^4 CFU), and 100 μL of this cell suspension was added to microtiter plate wells. Cell growth after 48 h incubation at 30 °C with shaking at 200 rpm was determined at 600 nm using a BioTek™ Synergy™ 2 multi-Mode microplate reader controlled using Gen5™ Data Analysis Software version 3.16.10 (BioTek Instruments, Winooski, VT, USA). MIC80 values (80% growth inhibition in the presence of the test drug compared with the untreated control) for each yeast construct were determined as technical triplicates repeated three times for three separate clones.

[2] = test system: S. cerevisiae strain A (AfCyp51A-6×His, native ScCyp51 retained); assay: MIC80 susceptibility, strain A; type: cell-based; details: Saccharomyces cerevisiae, Table 2, SD pH 6.8, 48 h, 30 °C
Method: as §2

[3] = test system: S. cerevisiae strain ARE Y121F (AfCyp51A-6×His Y121F, AfCprA2, AfErg6-FLAG); assay: MIC80 susceptibility, strain Y121F; type: cell-based, Saccharomyces cerevisiae; details: Saccharomyces cerevisiae; Table 2; strain Y121F; SD pH 6.8, 48 h, 30 °C; ± SD; read-out: MIC80
Method: as §2

[4] = test system: S. cerevisiae strain ADΔΔ (native ScCYP51); assay: MIC80 susceptibility, host strain ADΔΔ; type: cell-based; details: Saccharomyces cerevisiae, Table 2, SD pH 6.8, 48 h, 30 °C
Method: as §2

[5] = test system: S. cerevisiae strain ARE I301T (AfCyp51A-6×His I301T, AfCprA2, AfErg6-FLAG); assay: MIC80 susceptibility, strain I301T; type: cell-based, Saccharomyces cerevisiae; details: Saccharomyces cerevisiae, 48 h, pH 6.8, Table 2; strain I301T; SD pH 6.8, 48 h, 30 °C; ± SD; read-out: MIC80
Method: as §2

[6] = test system: S. cerevisiae strain BRE (AfCyp51B-6×His, AfCprA2, AfErg6-FLAG); assay: MIC80 susceptibility, strain BRE; type: cell-based, Saccharomyces cerevisiae; details: Saccharomyces cerevisiae; Table 2; strain BRE; SD pH 6.8, 48 h, 30 °C; ± SD; read-out: MIC80
Method: as §2

[7] = test system: S. cerevisiae strain AR (AfCyp51A-6×His, AfCprA2-6×His); assay: MIC80 susceptibility, strain AR; type: cell-based, Saccharomyces cerevisiae; details: Saccharomyces cerevisiae; Table 2; strain AR; SD pH 6.8, 48 h, 30 °C; ± SD; read-out: MIC80
Method: as §2

[8] = test system: S. cerevisiae strain ARE Y121F T289A (AfCyp51A-6×His Y121F T289A, AfCprA2, AfErg6-FLAG); assay: MIC80 susceptibility, strain Y121F T289A; type: cell-based, Saccharomyces cerevisiae; details: Saccharomyces cerevisiae; Table 2; strain Y121F T289A; SD pH 6.8, 48 h, 30 °C; ± SD; read-out: MIC80
Method: as §2

[9] = test system: S. cerevisiae strain ARE T289A (AfCyp51A-6×His T289A, AfCprA2, AfErg6-FLAG); assay: MIC80 susceptibility, strain T289A; type: cell-based, Saccharomyces cerevisiae; details: Saccharomyces cerevisiae, 48 h, pH 6.8, Table 2; strain T289A; SD pH 6.8, 48 h, 30 °C; ± SD; read-out: MIC80
Method: as §2

[10] = test system: S. cerevisiae strain BR (AfCyp51B-6×His, AfCprA2-6×His); assay: MIC80 susceptibility, strain BR; type: cell-based; details: Saccharomyces cerevisiae; Table 2; strain BR; SD pH 6.8, 48 h, 30 °C; ± SD; read-out: MIC80
Method: as §2

Compound: CC(C)=CCC[C@@H](C)[C@H]1CC[C@@]2(C)C3=C(CC[C@]12C)[C@@]1(C)CC[C@H](O)C(C)(C)[C@@H]1CC3 [Lanosterol, lanosterol]
- type I binding response (AfCYP51A-6×His): did not give the expected type I binding response; also recorded: did not give a type I binding response
- type I binding spectrum peak (AfCYP51B-6×His; AfCYP51B-6×His): 386 nm
- type I binding spectrum trough (AfCYP51B-6×His; AfCYP51B-6×His): 423 nm
- ΔAmax (type I binding) (AfCYP51B-6×His; AfCYP51B-6×His 5 μM, Michaelis–Menten equation): 0.22 and 0.219
- Kd (AfCYP51B-6×His; AfCYP51B-6×His 5 μM, type I binding, Michaelis–Menten equation, read-out: Ks): 477 µM
- affinity of AfCYP51B for eburicol versus lanosterol (AfCYP51B-6×His; ratio of Ks values): approximately 6 fold

Compound: CCCCCOc1ccc(-c2cc(-c3ccc(C(=O)N[C@H]4C[C@@H](O)[C@@H](O)NC(=O)[C@@H]5[C@@H](O)[C@@H](C)CN5C(=O)[C@H]([C@H](O)CC(N)=O)NC(=O)[C@H]([C@H](O)[C@@H](O)c5ccc(O)c(OS(=O)(=O)O)c5)NC(=O)[C@@H]5C[C@@H](O)CN5C(=O)[C@H]([C@@H](C)O)NC4=O)cc3)no2)cc1 [MCF, Micafungin] (X1-[Orn(4R-OH,5R-OH)]T[Hyp][hTyr(3S-OH,4S-OH,3'-OSO3H)][Gln(3R-OH)][Pro(3S-OH,4S-Me)]; lactam 1-C)
- MIC80 [1]: 0.18 ± 0.02 µM
- MIC80 [2]: 0.19 ± 0.03 µM
- MIC80 [3]: 0.24 ± 0.02 µM
- MIC80 [4]: 0.22 ± 0.02 µM
- MIC80 [5]: 0.28 ± 0.01 µM
- MIC80 [6]: 0.14 ± 0.01 µM
- MIC80 [7]: 0.17 ± 0.03 µM
- MIC80 [8]: 0.21 ± 0.01 µM
- MIC80 [9]: 0.27 µM
- MIC80 [10]: 0.17 ± 0.03 µM
